Measurements taken from patent publication US11623931B2, “Bicyclic compounds for diagnosis and therapy” (AC IMMUNE SA, priority 2016, dated 2023).

Experiments:
Parameters in all cases: key: − (No); +/− (very weak); + (weak); ++ (good); +++ (strong)
[1] = biological target: T1, aSyn aggregates on PD sections (Homo sapiens, UniProt P37840); test: Assay 1 (fluorescence based assay): direct staining of human Parkinson's disease brain sections; type: binding; conditions: staining intensity; compound 100 μM, frozen amygdala sections, PD Braak stage V-VI
T1 construct: 20 μm frozen sections from amygdala were purchased from an external provider (Tissue Solutions Ltd.); tissue Tissue Solutions Ltd; host or cells: human PD amygdala, frozen sections, Braak stage V-VI
Text: Assay 1 (Fluorescence Based Assay):
(§1) Direct Staining of Compounds of this Invention to Human Parkinson's Disease Brain Sections
(§2) 20 μm frozen sections from amygdala were purchased from an external provider (Tissue Solutions Ltd.). Donors were diagnosed with PD, Braak stage V-VI (Braak et al., Neurobiol. Aging, 2003, 24, 197-211) and thus with confirmed aSyn pathology. PD donors, Braak stage V-VI with mixed pathology, containing aSyn aggregates as well as Aβ plaques, were also used in this assay. Sections were kept at −80° C. until start of the experiment.
(§3) Brain sections were encircled with pap pen liquid blocker to reduce the volume of solution for the different incubations. Sections were fixed for 15 min at 4° C. with 4% paraformaldehyde and washed three times for 5 minutes with PBS (phosphate buffered saline) at room temperature. Test compounds were incubated on the sections at 100 μM in 50% ethanol in water for 30 min at room temperature, followed by three washes of 5 minutes with PBS. Sections were then saturated and permeabilized in blocking buffer (PBS, 10% NGS, 0.25% Triton) for 1 hour at room temperature and then incubated for 2 hours at room temperature with the primary antibodies against aSyn: aSyn-211 (SantaCruz Biotechnology sc-12767) or aSyn-pS129 (Abcam AB51253), and primary antibody against AR, 4G8, (Covance, SIG-39220). All primary antibodies diluted 1/250 in PBS, 5% NGS, 0.25% Triton. After three washes in PBS, the sections were incubated for 30 minutes at room temperature with a secondary anti-mouse antibody labeled with AlexaFluor555 (Invitrogen A21422) or anti-rabbit antibody labeled with AlexaFluor555 (Invitrogen A21428) and further washed three times in PBS. To reduce auto-fluorescence of the tissue, the sections were incubated in a solution of 0.1% Sudan Black (Sigma 199664) in 70% ethanol for 15 min at room temperature, followed by four washes with PBS and mounted under cover slips using ProLong Gold Antifade reagent (Invitrogen P36930).
(§4) Sections were analyzed on the Nikon Eclipse Ti microscope to detect staining and imaged using Nikon DS-Fi2 camera and NIS-Element AR4.13.1 software.

[2] = tested on: Aβ plaques on PD sections with mixed pathology; test: Assay 1 (fluorescence based assay): direct staining of PD brain sections with mixed pathology; type: binding, human; conditions: staining intensity; compound 100 μM, frozen amygdala sections, PD Braak stage V-VI with aSyn aggregates and Aβ plaques
Description: as §1, §2, §3, §4

[3] = tested on: Aβ plaques on AD sections; test: Assay 1 (fluorescence based assay): direct staining of human Alzheimer's disease brain sections; type: binding; conditions: staining intensity; compound 100 μM, frozen amygdala sections, AD Braak stage V-VI
Description: Direct Staining of Compounds of this Invention to Human Alzheimer's Disease Brain Sections 20 μm frozen sections from amygdala were purchased from an external provider (Tissue Solutions Ltd.). Donors were diagnosed with AD, Braak stage V-VI (Braak et al., Neurobiol. Aging, 1995, 16, 271-284) and thus with confirmed Aβ pathology. Sections were kept at −80° C. until start of the experiment. Brain sections were encircled with pap pen liquid blocker to reduce the volume of solution for the different incubations. Sections were fixed for 15 min at 4° C. with 4% paraformaldehyde and washed three times for 5 minutes with PBS at room temperature. Test compounds were incubated on the sections at 100 μM in 50% ethanol in water for 30 min at room temperature, followed by three washes of 5 minutes with PBS. Sections were then saturated and permeabilized in blocking buffer (PBS, 10% NGS, 0.25% Triton) for 1 hour at room temperature and then incubated for 2 hours at room temperature with the primary antibodies against AR, 4G8, (Covance, SIG-39220), diluted 1/250 in PBS, 5% NGS, and 0.25% Triton. After three washes in PBS, the sections were incubated for 30 minutes at room temperature with a secondary anti-mouse antibody labeled with AlexaFluor555 (Invitrogen A21422) and further washed three times in PBS. To reduce auto-fluorescence of the tissue, the sections were incubated in a solution of 0.1% Sudan Black (Sigma 199664) in 70% ethanol for 15 min at room temperature, followed by four washes with PBS and mounted under cover slips using ProLong Gold Antifade reagent (Invitrogen P36930). Sections were analyzed on the Nikon Eclipse Ti microscope to detect staining and imaged using Nikon DS-Fi2 camera and NIS-Element AR4.13.1 software.

SMILES	Staining of aSyn aggregates on PD sections [1]	Staining of Aβ plaques on PD sections with mixed pathology [2]	Staining of Aβ plaques on AD sections [3]
F[C@H]1CCCN(c2ccc(-c3nc4nc(-c5cn[nH]c5)ccc4s3)cn2)C1 [Example 83]	+++	−	
Cc1n[nH]c(C)c1-c1ccc2sc(-c3ccc(N4CCCC4)nc3F)nc2n1 [Example 88]	+++	−	
Cn1cc(-c2ccc3sc(-c4ccc(N5CCC[C@H](F)C5)nc4)nc3n2)cn1 [Example 84]	++	+/−	
F[C@H]1CCN(c2ccc(-c3ccc4cc(-c5cccnc5)sc4n3)cn2)C1 [Example 112]	+	++	
c1cncc(-c2ccc3sc(-c4ccc(N5CCCC5)nc4)nc3n2)c1 [Example 89]	++	−	
F[C@H]1CCCN(c2ccc(-c3nc4nc(-n5ccnc5)ccc4s3)cn2)C1 [Example 132]	++	+/−	
F[C@@H]1CCCN(c2ccc(-c3nc4ncc(-c5cccnc5)cc4s3)cn2)C1 [Example 100]	++	++	
Fc1ccc(-c2ccc3sc(-c4ccc(N5CCCC5)nc4)nc3n2)cn1 [Example 109]	++	+/−	
Cn1cc(-c2ccc3sc(-c4ccc(N5CCCC5)nc4F)nc3n2)cn1 [Example 86]	++	−	
F[C@@H]1CCCN(c2ccc(-c3nc4ncc(N5CCOCC5)cc4s3)cn2)C1 [Example 123]	+	+	
COc1ccc(/C=C/c2ccc3cc(-c4ccc(OCCF)cc4)sc3n2)cc1 [Example 13]	++		+++
O=C1COCCN1c1ccc2nc(-c3ccc(N4CC[C@H](F)C4)nc3)sc2c1 [Example 73]	++		+
Cn1cc(-c2ccc3sc(-c4ccc(N5CCCC5)nc4F)nc3c2)cn1 [Example 42]	+		+
FCCOc1cccc(Nc2ccc3cc(-c4cccnc4)sc3n2)c1 [Example 59]	+		+
CNc1ccc(-c2ccc3cc(-c4cccc(OC)c4)sc3n2)cc1 [Example 9]	++		++
CNc1ccc(-c2cc3ccc(Nc4ccc5c(c4)OCCO5)nc3s2)cc1 [Example 75]	++		+++
CNc1ccc(-c2ccc3cc(-c4cccc(OC)c4O)sc3n2)cn1 [Example 3]	++		++
CN(C)c1ccc(-c2cc3ccc(-c4ccc(N5CCC(F)CC5)nc4)nc3s2)cn1 [Example 50]	++		+
CNc1ccc(-c2ccc3cc(-c4ccnc(OC)c4)sc3n2)cc1 [Example 31]	+		++
Fc1ncccc1-c1cc2ccc(-c3ccc(N4CCCC4)nc3)nc2s1 [Example 34]	++		+++

Further lines, with some results ahead:

Staining of aSyn aggregates on PD sections [1]	SMILES	Staining of Aβ plaques on PD sections with mixed pathology [2]	Staining of Aβ plaques on AD sections [3]
+++	Cn1cncc1-c1ccc2sc(-c3ccc(N4CCCC4)nc3F)nc2n1 [Example 94]	−	
++	F[C@@H]1CCCN(c2ccc(-c3nc4nc(-c5cncs5)ccc4s3)cn2)C1 [Example 99]	+/−	
+++	CNc1ccc(-c2cc3ccc(-c4ccc(F)nc4)nc3s2)cc1F [Example 106]	+++	
+++	F[C@@H]1CCN(c2ccc(-c3ccc4cc(-c5cn[nH]c5)sc4n3)cn2)C1 [Example 114]	+++	
++	Fc1nc(N2CCCC2)ccc1-c1nc2nc(-c3cccnc3)ccc2s1 [Example 87]	−	
++	O=C1c2sc(-c3ccc(N4CC[C@@H](F)C4)nc3)nc2CCN1c1cccnc1 [Example 129]	+++	
+	F[C@H]1CCCN(c2ccc(-c3nc4nc(-c5cncs5)ccc4s3)cn2)C1 [Example 98]	+/−	
++	c1cncc(-c2cnc3sc(-c4ccc(N5CCCC5)nc4)nc3c2)c1 [Example 23]		+
+	FCCn1cc(-c2cc3nc(-c4ccc(N5CCCC5)nc4)sc3cn2)cn1 [Example 79]		+
+	CNc1ccc(-c2ccc3cc(-c4ccc(OCCF)cc4)sc3n2)cc1 [Example 11]		++
++	c1cncc(-c2cc3nc(-c4ccc(N5CCCC5)nc4)sc3cn2)c1 [Example 24]		+
+	F[C@@H]1CCN(c2ccc(-c3cc4nc(-c5cccnc5)ccc4s3)cn2)C1 [Example 46]		+
+++	c1cncc(-c2ccc3nc(-c4ccc(N5CCCC5)nc4)sc3c2)c1 [Example 19]		+++
++	c1n[nH]cc1-c1cc2nc(-c3ccc(N4CCCC4)nc3)sc2cn1 [Example 25]		+
++	CN(C)c1ccc(-c2ccc3cc(-c4ccc(N(C)C)nc4)sc3n2)cn1 [Example 37]		+
+	c1cncc(-c2cc3ccc(Nc4ccc(N5CCOCC5)nc4)nc3s2)c1 [Example 66]		++
++	FCCOc1ccc(Nc2ccc3cc(-c4cccnc4)sc3n2)cc1 [Example 63]		++
+++	c1cncc(-c2ccc3nc(-c4ccc(N5CCCC5)nc4)sc3n2)c1 [Example 38]		+++
++	COc1ccc(C#Cc2ccc3cc(-c4cccnc4)sc3n2)cc1 [Example 77]		++
+	c1cncc(-c2ccc3sc(-c4ccc(N5CCCC5)nc4)nc3c2)c1 [Example 39]		+
+	CNc1ccc(-c2cc3ccc(-c4ccc(OCCF)cc4)nc3s2)cc1 [Example 10]		+++
